What was measured:
[1] = In vivo plasma stability, radio-HPLC of plasma at 15 min p.i.; conditions: healthy male NRG mice (n=3), 15 min post-injection
Experimental: In vivo plasma stability studies were conducted for ^68Ga-labeled tracers to evaluate metabolic stability at 15 min p.i. Approximately 5.56 to 15.3 MBq of ^68Ga-LW01025, ^68Ga-LW01029, ^68Ga-LW01107, ^68Ga-LW01108, ^68Ga-LW01110, ^68Ga-LW01102, or ^68Ga-LW01142 were injected via tail vein into three male NRG mice, respectively. At 15 min p.i., mice were sedated and euthanized and their blood and urine were collected. The plasma was extracted from whole blood with ACN, vortexed, centrifuged, and the supernatant collected. The plasma and urine were analyzed with radio-HPLC (C18 analytical column; flow rate: 2.0 mL/min). The HPLC condition was same as the HPLC condition for quality control.
The in vivo studies were similarly performed according to the procedure set forth in Example 1. […] The present invention has been described with regard to one or more embodiments.

[2] = Ex vivo biodistribution in PC-3 tumor-bearing mice; conditions: male, mouse, iv, total radioactivity, 1 h post-injection, n = 4; for tissue uptake at 1 h: mice bearing PC-3 tumor xenografts; for tissue to tissue ratio at 1 h: uptake ratio
Experimental: All imaging and biodistribution studies were performed using male NOD.Cg-Rag1^tm1MoM II2rg^tm1WI/SzJ (NRG) mice and conducted according to the guidelines established by the Canadian Council on Animal Care and approved by Animal Ethics Committee of the University of British Columbia. For tumor inoculations, mice were anesthetized by inhalation with 2% isoflurane in oxygen and implanted subcutaneously with 5×10^6 PC-3 cells below the left shoulder. Imaging and biodistribution studies were performed only after tumors grew to 5-8 mm in diameter.
For PET/CT imaging studies, ˜3-4 MBq of the ^68Ga-labeled tracer was injected through the tail vein. Mice were allowed to recover and roam freely in the cages after injecting the tracer. At 45 min post-injection (p.i.), mice were sedated again and positioned on the scanner. First, a 10 min CT scan was conducted for localization and attenuation correction for reconstruction of PET images, before a 10 min PET image was acquired. Heating pads were used during the entire procedure to keep the mice warm. For ex vivo biodistribution studies, mice were injected with ˜1.5-3 MBq of the ^68Ga-labeled tracer. At 1 h p.i., mice were euthanized, blood was drawn from heart, and organs/tissues of interest were collected, rinsed with PBS, blotted dry, weighed, and counted using an automated gamma counter. The uptake in each organ/tissue was normalized to the injected dose and expressed as the percentage of the injected dose per gram of tissue (% ID/g).
All imaging and biodistribution studies were performed using male NOD.Cg-Rag1tm1Mom II2rgtm1WjI/SzJ (NRG) mice and conducted according to the guidelines established by the Canadian Council on Animal Care and approved by Animal Ethics Committee of the University of British Columbia. For tumor inoculations, mice were anesthetized by inhalation with 2% isoflurane in oxygen and implanted subcutaneously with 5×10^6 PC-3 cells below the left shoulder. Imaging and biodistribution studies were performed only after tumors grew to 5-8 mm in diameter.
For PET/CT imaging studies, ˜5 MBq of the ^68Ga-labeled tracer was injected through the tail vein. Mice were allowed to recover and roam freely in the cages after injecting the tracer. At 45 min post-injection (p.i.), mice were sedated again and positioned on the scanner. First, a 10 min CT scan was conducted for localization and attenuation correction for reconstruction of PET images, before a 10 min PET image was acquired. Heating pads were used during the entire procedure to keep the mice warm. For ex vivo biodistribution studies, mice were injected with ˜3 MBq of the 68Ga-labeled tracer. At 1 h p.i., mice were euthanized, blood was drawn from heart, and organs/tissues of interest were collected, rinsed with PBS, blotted dry, weighed, and counted using an automated gamma counter.

GRPR = molecular target: T1, GRPR (Homo sapiens, UniProt P30550); conditions: literature (Heimbrook 1991; Lin 1995); cited from earlier work
T1 construct: endogenous in cells; host or cells: PC-3 prostate cancer cells

[3] = NRG, PC-3 tumor, Biodistribution PC3 tumor Mean
[4] = NRG, adrenal, Biodistribution Adrenal Mean
[5] = NRG, bone, Biodistribution Bone Mean
[6] = NRG, brain, Biodistribution Brain Mean
[7] = NRG, fat, Biodistribution Fat Mean
[8] = NRG, heart, Biodistribution Heart Mean
[9] = NRG, kidneys, Biodistribution Kidneys Mean
[10] = NRG, large intestine, Biodistribution Large Intestine Mean
[11] = NRG, liver, Biodistribution Liver Mean
[12] = NRG, lungs, Biodistribution Lungs Mean
[13] = NRG, muscle, Biodistribution Muscle Mean
[14] = NRG, pancreas, Biodistribution Pancreas Mean
[15] = NRG, small intestine, Biodistribution Small Intestine Mean
[16] = NRG, spleen, Biodistribution Spleen Mean
[17] = NRG, stomach, Biodistribution Stomach Mean
[18] = NRG, testes, Biodistribution Testes Mean
[19] = NRG, whole blood, Biodistribution Blood Mean

T1 sequence (P30550 whole entry): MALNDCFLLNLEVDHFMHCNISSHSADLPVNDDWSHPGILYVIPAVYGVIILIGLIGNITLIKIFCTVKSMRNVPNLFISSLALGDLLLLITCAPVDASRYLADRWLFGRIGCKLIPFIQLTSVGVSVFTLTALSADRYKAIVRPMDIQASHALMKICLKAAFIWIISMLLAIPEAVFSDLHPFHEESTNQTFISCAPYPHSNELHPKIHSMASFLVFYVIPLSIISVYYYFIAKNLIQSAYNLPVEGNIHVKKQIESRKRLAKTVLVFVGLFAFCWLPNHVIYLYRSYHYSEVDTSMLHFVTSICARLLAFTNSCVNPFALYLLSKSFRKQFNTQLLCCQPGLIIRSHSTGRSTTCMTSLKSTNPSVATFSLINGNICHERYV

Molecule	remaining intact in plasma [1]	tissue uptake at 1 h [2, 3]	tissue uptake at 1 h [2, 4]	tissue uptake at 1 h [2, 5]	tissue uptake at 1 h [2, 6]	tissue uptake at 1 h [2, 7]	tissue uptake at 1 h [2, 8]	tissue uptake at 1 h [2, 9]	tissue uptake at 1 h [2, 10]	tissue uptake at 1 h [2, 11]	tissue uptake at 1 h [2, 12]	tissue uptake at 1 h [2, 13]	tissue uptake at 1 h [2, 14]	tissue uptake at 1 h [2, 15]	tissue uptake at 1 h [2, 16]	tissue uptake at 1 h [2, 17]	tissue uptake at 1 h [2, 18]	tissue uptake at 1 h [2, 19]	other results
CC(C)C[C@@H](CN1CSC[C@H]1C(N)=O)NC(=O)[C@H](Cc1c[nH]cn1)NC(=O)CNC(=O)[C@@H](NC(=O)[C@H](C)NC(=O)[C@H](Cc1c[nH]c2ccccc12)NC(=O)[C@H](CCC(N)=O)NC(=O)[C@@H](Cc1ccccc1)NC(=O)CN1CCC(NC(=O)CN2CCN(CC(=O)O)CCN(CC(=O)O)CCN(CC(=O)O)CC2)CC1)C(C)C [^68Ga-LW01045, metal not drawn]	83.3±1.45%	10.2 %ID/g	0.57 %ID/g	0.19 %ID/g	0.05 %ID/g	0.09 %ID/g	0.27 %ID/g	2.51 %ID/g	0.37 %ID/g	2.61 %ID/g	0.75 %ID/g	0.15 %ID/g	2.81 %ID/g	1.04 %ID/g	0.47 %ID/g	0.32 %ID/g	0.19 %ID/g	0.76 %ID/g	–
CC(C)C[C@@H](CN1CSC[C@H]1C(N)=O)NC(=O)[C@H](Cc1cnc[nH]1)NC(=O)CN(C)C(=O)[C@@H](NC(=O)[C@H](C)NC(=O)[C@H](Cc1c[nH]c2ccccc12)NC(=O)[C@H](CCC(N)=O)NC(=O)[C@@H](Cc1ccccc1)NC(=O)CN1CCC(NC(=O)CN2CCN(CC(=O)O)CCN(CC(=O)O)CCN(CC(=O)O)CC2)CC1)C(C)C [^68Ga-LW01090, metal not drawn]	67.1±4.76%	15.7 %ID/g	0.58 %ID/g	0.1 %ID/g	0.03 %ID/g	0.11 %ID/g	0.24 %ID/g	3.52 %ID/g	0.41 %ID/g	0.64 %ID/g	0.55 %ID/g	0.2 %ID/g	1.98 %ID/g	0.66 %ID/g	0.3 %ID/g	0.4 %ID/g	0.23 %ID/g	0.76 %ID/g	tissue to tissue ratio at 1 h ([2]; NOD.Cg-Rag1tm1Mom Il2rgtm1Wjl/SzJ (NRG), tumor and kidney, Tumor/kidney Mean): 4.48; tissue to tissue ratio at 1 h ([2]; NOD.Cg-Rag1tm1Mom Il2rgtm1Wjl/SzJ (NRG), tumor and pancreas, Tumor/pancreas Mean): 7.95; tissue to tissue ratio at 1 h ([2]; NRG, PC-3 tumor / bone, Tumor/bone Mean): 175; tissue to tissue ratio at 1 h ([2]; NRG, PC-3 tumor / muscle, Tumor/muscle Mean): 82.3
litorin	–	–	–	–	–	–	–	–	–	–	–	–	–	–	–	–	–	–	binding affinity to the GRPR (GRPR): very strong binding affinity
